This is an account of results in ChEMBL document CHEMBL1201862, “PubChem BioAssay data set” (2004).

Test [1] has as its target Polyadenylate-binding protein 1 (Homo sapiens, UniProt P11940). Briefly: blockers of PABP interaction with poly(A) – biochemical, fluorescence polarization, […] (AID 2014).
In test [2] the target is Eukaryotic translation initiation factor 4H (Homo sapiens, UniProt Q15056). Briefly: eIF4H binding inhibition – biochemical, uHTS, fluorescence polarization, translation initiation inhibitor project, primary screen (AID 2012). (In general: In fluorescence polarisation assays a small probe gives low polarisation when free and higher when bound to something large.)
For test [3], the target named is T1, DNA dC->dU-editing enzyme APOBEC-3G (Homo sapiens, UniProt Q9HC16). The test can be described thus: Dose Response confirmation of small molecule APOBEC3G DNA Deaminase Inhibitors via a fluorescence-based single-stranded DNA deaminase assay. [Related pubchem assays (depositor defined):AID493012, AID493028]. Format: functional.
Test [4] concerns the target FAD-linked sulfhydryl oxidase ALR (Homo sapiens, UniProt P55789). The test can be described thus: ALR-catalysed DTT oxidation blockers – biochemical, H2O2 detection, luminescence, cherry-pick, dose response (AID 493248).
Test [5] addresses G-protein coupled receptor 55 (Homo sapiens, UniProt Q9Y2T6). Briefly: selective activators of receptor GPR55 – imaging, U2OS cells, beta-arrestin-GFP redistribution, primary screen (AID 1961). Format: functional.
Test [6] concerns the target T1, DNA dC->dU-editing enzyme APOBEC-3G. The format is functional.
Test [7] concerns the target DNA dC->dU-editing enzyme APOBEC-3A (Homo sapiens, UniProt P31941). Briefly: Dose Response confirmation of small molecule APOBEC3A DNA Deaminase Inhibitors via a fluorescence-based single-stranded DNA deaminase assay. [Related pubchem assays (depositor defined):AID493011, AID493024]. Format: functional.
Test [8] concerns the target Peroxisome proliferator-activated receptor gamma/Nuclear receptor coactivator 2 (Homo sapiens, UniProt P37231). The format is functional.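 Further: agonist potency for raising coactivator recruitment to the receptor.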
Test [9] addresses Peroxisome proliferator-activated receptor gamma/Nuclear receptor coactivator 3 (Homo sapiens, UniProt P37231). Format: functional.
In test [10] the target is Peroxisome proliferator-activated receptor gamma/Nuclear receptor coactivator 1 (Homo sapiens, UniProt P37231). The format is functional.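 Further: agonist potency as compounds enhance coactivator SRC-1 recruitment to PPARgamma.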
For a further test, the target named is T2, Aminopeptidase N (Plasmodium falciparum FcB1/Columbia, UniProt O96935).
T2 sequence (O96935 whole entry): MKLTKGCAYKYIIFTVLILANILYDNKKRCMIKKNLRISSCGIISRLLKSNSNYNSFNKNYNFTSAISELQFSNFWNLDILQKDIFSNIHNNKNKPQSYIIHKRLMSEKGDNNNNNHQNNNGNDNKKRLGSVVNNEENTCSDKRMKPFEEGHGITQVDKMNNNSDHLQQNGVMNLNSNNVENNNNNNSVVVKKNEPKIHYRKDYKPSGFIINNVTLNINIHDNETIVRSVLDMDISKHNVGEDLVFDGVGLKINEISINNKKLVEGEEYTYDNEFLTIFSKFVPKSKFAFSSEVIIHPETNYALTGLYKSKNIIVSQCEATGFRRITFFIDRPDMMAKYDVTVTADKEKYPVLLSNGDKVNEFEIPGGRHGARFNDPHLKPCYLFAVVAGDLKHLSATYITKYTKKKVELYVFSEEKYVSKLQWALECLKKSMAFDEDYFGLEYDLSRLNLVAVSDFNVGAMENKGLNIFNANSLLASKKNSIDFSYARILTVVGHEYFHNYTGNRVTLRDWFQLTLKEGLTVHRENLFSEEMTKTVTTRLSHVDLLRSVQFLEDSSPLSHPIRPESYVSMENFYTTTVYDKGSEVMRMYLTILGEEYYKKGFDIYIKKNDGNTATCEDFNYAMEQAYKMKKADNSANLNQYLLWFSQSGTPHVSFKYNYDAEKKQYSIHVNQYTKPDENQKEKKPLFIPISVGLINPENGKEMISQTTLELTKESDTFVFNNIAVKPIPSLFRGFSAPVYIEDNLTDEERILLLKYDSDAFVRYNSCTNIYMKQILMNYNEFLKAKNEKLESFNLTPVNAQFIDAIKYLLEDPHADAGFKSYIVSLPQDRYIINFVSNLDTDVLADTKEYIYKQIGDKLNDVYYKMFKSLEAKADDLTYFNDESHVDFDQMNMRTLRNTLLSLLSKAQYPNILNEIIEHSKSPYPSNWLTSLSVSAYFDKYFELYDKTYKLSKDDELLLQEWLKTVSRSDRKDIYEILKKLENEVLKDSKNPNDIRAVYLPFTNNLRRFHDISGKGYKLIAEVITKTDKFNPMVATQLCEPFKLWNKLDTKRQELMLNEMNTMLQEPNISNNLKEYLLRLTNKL
The test can be described thus: malaria alanyl aminopeptidase activity blockers – biochemical, fluorogenic H-Leu-NHMec substrate, 1536-well (AID 1445). Details: species or system Plasmodium falciparum 3D7, 3D7.

Test [11] concerns the target Luciferin 4-monooxygenase (Photinus pyralis, UniProt P08659). The test can be described thus: Counter Screen for Luciferase-based Assay Positives. [Related pubchem assays: 620, 618, 411 ].
The subject of another test is HT-1080. Briefly: HT1080 cell viability loss – fluorescence readout (AID 620). Format: functional, cell-based. As to conditions: Homo sapiens.
Test [12] can be described thus: viability of uninfected HEp-2 cells – cell-based, HTS, cytotoxicity control for RSV inhibitor project, dose response (AID 2410). Format: functional. As to conditions: human respiratory syncytial virus.

The source made the active and inactive calls. Where only a bound is given, the exact number is not on record here.

Polyadenylate-binding protein 1, sequence (P11940 whole entry): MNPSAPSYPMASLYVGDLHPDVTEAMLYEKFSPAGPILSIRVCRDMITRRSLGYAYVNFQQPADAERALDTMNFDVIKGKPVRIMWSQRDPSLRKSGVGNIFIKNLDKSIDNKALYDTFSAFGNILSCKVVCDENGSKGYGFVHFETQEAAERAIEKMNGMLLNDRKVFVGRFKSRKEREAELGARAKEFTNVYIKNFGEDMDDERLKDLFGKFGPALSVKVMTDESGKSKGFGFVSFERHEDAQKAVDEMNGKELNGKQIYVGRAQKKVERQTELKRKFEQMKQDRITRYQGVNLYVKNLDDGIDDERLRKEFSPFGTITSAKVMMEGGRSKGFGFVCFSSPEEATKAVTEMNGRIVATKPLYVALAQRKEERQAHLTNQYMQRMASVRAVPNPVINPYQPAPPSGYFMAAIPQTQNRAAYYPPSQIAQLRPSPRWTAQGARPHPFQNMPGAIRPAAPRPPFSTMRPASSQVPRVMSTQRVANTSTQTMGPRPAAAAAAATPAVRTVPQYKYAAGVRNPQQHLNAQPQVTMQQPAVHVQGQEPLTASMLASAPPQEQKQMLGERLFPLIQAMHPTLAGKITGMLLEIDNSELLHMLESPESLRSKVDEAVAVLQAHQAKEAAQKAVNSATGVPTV
DNA dC->dU-editing enzyme APOBEC-3A, sequence (P31941 whole entry): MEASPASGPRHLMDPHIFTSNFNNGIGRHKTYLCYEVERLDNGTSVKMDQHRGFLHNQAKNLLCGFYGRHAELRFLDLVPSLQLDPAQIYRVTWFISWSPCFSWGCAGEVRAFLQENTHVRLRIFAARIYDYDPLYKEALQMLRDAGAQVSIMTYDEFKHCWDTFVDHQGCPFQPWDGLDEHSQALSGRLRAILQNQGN
T1 sequence (Q9HC16 whole entry): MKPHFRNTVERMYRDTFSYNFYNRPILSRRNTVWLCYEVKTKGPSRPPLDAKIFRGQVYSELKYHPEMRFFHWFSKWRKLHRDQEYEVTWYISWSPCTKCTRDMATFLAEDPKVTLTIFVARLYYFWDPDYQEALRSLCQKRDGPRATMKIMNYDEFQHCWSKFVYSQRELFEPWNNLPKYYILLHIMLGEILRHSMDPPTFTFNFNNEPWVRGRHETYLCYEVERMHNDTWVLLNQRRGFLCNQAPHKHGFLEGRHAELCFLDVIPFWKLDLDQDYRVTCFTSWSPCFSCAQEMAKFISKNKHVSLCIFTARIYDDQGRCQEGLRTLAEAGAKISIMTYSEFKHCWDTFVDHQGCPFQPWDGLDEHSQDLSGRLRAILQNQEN
Luciferin 4-monooxygenase, sequence (P08659 whole entry): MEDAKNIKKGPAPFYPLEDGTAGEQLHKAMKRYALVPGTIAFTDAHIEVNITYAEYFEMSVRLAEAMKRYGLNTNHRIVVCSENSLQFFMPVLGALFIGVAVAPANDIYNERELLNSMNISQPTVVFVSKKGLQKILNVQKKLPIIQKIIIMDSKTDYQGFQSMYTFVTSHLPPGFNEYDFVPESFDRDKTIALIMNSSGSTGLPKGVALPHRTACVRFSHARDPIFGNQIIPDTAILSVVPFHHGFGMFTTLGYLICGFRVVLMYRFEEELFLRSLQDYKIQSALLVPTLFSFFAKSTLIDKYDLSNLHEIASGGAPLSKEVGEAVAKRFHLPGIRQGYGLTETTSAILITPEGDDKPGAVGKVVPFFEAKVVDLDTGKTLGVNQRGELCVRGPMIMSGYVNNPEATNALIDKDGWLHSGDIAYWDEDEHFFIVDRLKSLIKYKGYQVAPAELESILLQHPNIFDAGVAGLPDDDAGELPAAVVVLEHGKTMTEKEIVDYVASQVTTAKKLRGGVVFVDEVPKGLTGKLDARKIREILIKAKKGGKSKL
G-protein coupled receptor 55, sequence (Q9Y2T6 whole entry): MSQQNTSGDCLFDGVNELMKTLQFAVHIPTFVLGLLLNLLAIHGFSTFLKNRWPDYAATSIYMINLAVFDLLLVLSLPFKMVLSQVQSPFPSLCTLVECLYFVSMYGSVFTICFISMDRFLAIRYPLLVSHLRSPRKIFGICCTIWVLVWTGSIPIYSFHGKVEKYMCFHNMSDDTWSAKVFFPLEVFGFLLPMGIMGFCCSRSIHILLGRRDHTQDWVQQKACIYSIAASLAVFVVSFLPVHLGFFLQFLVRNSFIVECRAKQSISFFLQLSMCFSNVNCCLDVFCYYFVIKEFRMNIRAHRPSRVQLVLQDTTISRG
Peroxisome proliferator-activated receptor gamma/Nuclear receptor coactivator 1, sequence (P37231 whole entry): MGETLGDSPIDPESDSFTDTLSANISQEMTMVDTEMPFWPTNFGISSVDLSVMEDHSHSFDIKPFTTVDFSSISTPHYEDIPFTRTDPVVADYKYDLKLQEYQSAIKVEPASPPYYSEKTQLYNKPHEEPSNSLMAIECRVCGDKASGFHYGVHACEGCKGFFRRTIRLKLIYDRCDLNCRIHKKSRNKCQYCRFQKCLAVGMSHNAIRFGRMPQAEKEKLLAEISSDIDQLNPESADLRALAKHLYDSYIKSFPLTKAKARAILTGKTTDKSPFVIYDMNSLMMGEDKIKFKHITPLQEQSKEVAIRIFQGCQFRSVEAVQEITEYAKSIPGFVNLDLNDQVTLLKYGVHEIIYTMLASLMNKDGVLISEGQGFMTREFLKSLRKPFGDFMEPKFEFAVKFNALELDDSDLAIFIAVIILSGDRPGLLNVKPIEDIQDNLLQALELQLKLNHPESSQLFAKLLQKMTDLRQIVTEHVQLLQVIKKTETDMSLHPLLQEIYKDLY
Peroxisome proliferator-activated receptor gamma/Nuclear receptor coactivator 1, sequence (Q15788 whole entry, further chain): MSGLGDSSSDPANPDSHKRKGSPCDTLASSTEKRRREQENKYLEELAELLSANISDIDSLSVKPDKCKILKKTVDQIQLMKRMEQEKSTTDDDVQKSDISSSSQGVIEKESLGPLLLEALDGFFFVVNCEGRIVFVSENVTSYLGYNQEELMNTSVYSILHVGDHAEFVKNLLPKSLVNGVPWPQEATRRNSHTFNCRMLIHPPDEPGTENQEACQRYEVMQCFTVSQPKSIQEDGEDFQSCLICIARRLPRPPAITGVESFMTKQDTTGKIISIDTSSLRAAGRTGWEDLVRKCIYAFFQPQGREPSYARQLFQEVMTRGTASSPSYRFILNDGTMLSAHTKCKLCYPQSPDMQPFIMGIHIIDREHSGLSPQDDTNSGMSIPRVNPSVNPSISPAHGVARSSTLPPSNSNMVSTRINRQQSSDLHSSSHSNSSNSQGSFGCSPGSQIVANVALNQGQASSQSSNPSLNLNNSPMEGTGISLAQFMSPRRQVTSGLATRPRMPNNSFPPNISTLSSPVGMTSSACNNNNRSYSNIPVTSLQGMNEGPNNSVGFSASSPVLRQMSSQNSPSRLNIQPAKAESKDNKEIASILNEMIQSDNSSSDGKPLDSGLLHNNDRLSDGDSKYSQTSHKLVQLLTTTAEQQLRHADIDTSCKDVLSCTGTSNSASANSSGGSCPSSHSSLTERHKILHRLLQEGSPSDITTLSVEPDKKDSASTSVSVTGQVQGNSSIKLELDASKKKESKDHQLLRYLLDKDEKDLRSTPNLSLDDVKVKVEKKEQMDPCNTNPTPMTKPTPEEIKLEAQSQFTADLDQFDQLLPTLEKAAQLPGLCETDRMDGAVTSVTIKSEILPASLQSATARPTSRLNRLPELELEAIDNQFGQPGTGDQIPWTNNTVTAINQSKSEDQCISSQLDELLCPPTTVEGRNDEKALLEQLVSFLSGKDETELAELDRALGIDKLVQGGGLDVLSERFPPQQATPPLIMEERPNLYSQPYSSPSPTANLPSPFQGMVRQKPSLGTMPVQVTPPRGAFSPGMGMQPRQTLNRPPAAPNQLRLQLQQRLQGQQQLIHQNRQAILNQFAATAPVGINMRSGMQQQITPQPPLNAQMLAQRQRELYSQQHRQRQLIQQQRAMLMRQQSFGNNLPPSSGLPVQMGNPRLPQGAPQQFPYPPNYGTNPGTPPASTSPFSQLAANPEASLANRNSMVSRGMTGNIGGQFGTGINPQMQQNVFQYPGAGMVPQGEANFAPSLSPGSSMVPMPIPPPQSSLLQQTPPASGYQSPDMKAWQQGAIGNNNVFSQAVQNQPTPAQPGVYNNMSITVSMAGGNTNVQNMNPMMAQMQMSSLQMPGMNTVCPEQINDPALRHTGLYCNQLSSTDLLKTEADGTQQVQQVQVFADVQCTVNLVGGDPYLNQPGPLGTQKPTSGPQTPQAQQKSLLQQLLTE
FAD-linked sulfhydryl oxidase ALR, sequence (P55789 whole entry): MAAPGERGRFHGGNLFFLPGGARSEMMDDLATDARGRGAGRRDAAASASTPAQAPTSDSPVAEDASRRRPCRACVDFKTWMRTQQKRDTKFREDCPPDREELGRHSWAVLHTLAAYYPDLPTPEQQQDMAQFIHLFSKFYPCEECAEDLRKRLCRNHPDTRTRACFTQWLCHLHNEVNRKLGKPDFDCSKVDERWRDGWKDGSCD

`CCN1C(=NCC(C)C)N[C@@H](c2cccc(F)c2)C(C(=O)OC)=C1C`: the IC50 (usually the concentration that gives 50% inhibition) is 5.33 µM (active) in test [1] and > 100 µM (inactive) in test [2].

With `O=S(=O)(Nc1ccc(O)c(NS(=O)(=O)c2ccccc2)c1)c1ccccc1`, the concentration for half-maximal inhibition (IC50) in [3] is 55.1 µM (active). The AC50 (commonly the midpoint of the concentration-response curve, whichever way the signal moves) in test [4] is 1.23 µM (active).

Consider `Cc1cc(=O)n2nc(-c3ccccc3)sc2c1C#N`, for which the half-maximal inhibitory concentration (IC50) in [3] is 39.2 µM (active).

On to `COc1ccc(C(=O)NC(=S)NCc2ccc(-c3nc4ccccc4o3)cc2)cc1OC`, for which, in test [5], the EC50 (as a rule, the concentration that produces a half-maximal response) was > 32 µM (inactive).

Regarding `CCN1C(NCCOC)=N[C@@H](CCc2ccccc2)[C@H](C(=O)OC)[C@H]1C`, the IC50 in [6] was 4.15 µM (active); in [1], 8.16 µM (active); in test [2], > 100 µM (inactive); in test [7], 3.39 µM (active).

`O=C1OCCC1Sc1nnc(-c2ccc(Br)cc2)o1` (stereo unspecified): the values for the EC50 in [8], in test [9] and in [10] were 75.3 µM (not active), > 79.4 µM (not active) and > 79.4 µM (not active), respectively.

In the case of `O=C(NCc1ccccc1)C1CCN(S(=O)(=O)c2cccc3cccnc23)CC1`, the IC50 at Aminopeptidase N is 42.1 µM (active).

On to `CC(=O)Nc1ccc2oc(-c3cc(F)c(F)cc3Cl)nc2c1`, for which the results for the EC50 (in [11]; with HT-1080) were 16.2 µM (active) and > 50 µM (not active), respectively.

On to `O=C(c1ccccc1)c1cnc(-c2ccc(Cl)cc2)s1`, for which the EC50 in [8] is recorded as 11.9 µM (not active); in [9] it was 21.4 µM (not active); in test [10] it was 14.4 µM (not active).

In the case of `CCn1c(SCC(=O)Nc2ccccc2C)nnc1-c1ccccc1O`, the EC50 in [11] is given as > 100 µM (not active); with HT-1080, > 50 µM (not active).

Take `CC(CCc1ccccc1)NC(=O)C(Cc1ccccc1)NS(=O)(=O)c1cccs1` (stereo unspecified): the IC50 at Aminopeptidase N was 71.4 µM (active).

As for `CCOCCCn1c(S)nnc1-c1ccc(Cl)cc1`, the IC50 in test [3] was 13.8 µM (active).

Regarding `C[N+]1(C)C2CCC1CC(OC(=O)c1ccccc1)C2` (stereo unspecified), the IC50 in [6] is 1.75 µM (active); in [7], 2.96 µM (active).

As for `COC(=O)C1=C(C)N(Cc2ccccc2)C(NCCCOC(C)C)=N[C@H]1c1ccccc1`, the IC50 in test [6] is 5.12 µM (active); in test [7], 3.37 µM (active).

As to `CCOc1ccccc1/N=C1/SCCCN1C`, the IC50 is 4.4 µM (active) in test [1] and > 100 µM (inactive) in [2].

As for `CCOc1cc(C2Nc3cccc4cccc(c34)N2)ccc1O`, the 50% effective concentration (EC50) in test [5] is 8.01 µM (active). For the same compound, the CC50 (usually the concentration at which the toxic effect on the cells reaches its halfway point) in [12] is 20.2 µM (active).
